{"source": "paper PMC11321677", "about": "“Reversing MET‐Mediated Resistance in Oncogene‐Driven NSCLC by MET‐Activated Wnt Condensative Prodrug” (Advanced Science, 2024)", "key": {"[1]": {"system": "PC-9 OE cell xenografts", "test": "PC-9 OE NSCLC cell xenograft mouse model", "type": "in vivo, BALB/c nude mice", "conditions": "PC-9 OE xenograft, 3 mg kg−1 tail vein every two days, five injections", "description": "To evaluate the inhibitory impact of WntSI on the Wnt/β‐catenin pathway in vivo, we established a model of PC‐9 OE cell xenografts in BALB/c nude mice (Figure S12A, Supporting Information). […] In addition, we evaluated the drug safety of CA and WntSI, including recording the weight fluctuation of mice during the treatment period as well as the detection of hematological and biochemical indicators (Figure S12F–H, Supporting Information). […] Furthermore, we conducted IHC staining and IHC scoring (Figure 5F,G) to explore the expression of c‐Met, β‐catenin pathway‐associated proteins, as well as Ki67 in the tumor tissues. […] In addition, we closely monitored the fluctuations in body weight among the four groups of mice throughout the course of treatment (Figure 5H).\n5×10^6 PC‐9 OE cells were subcutaneously injected into the right flanks of BALB/c nude mice aged 5–6 weeks. The tumor volume was calculated using the equation: volume = 1/2 × length × width^2. Once the tumor volume reached 150–180 mm^3, the mice were randomly grouped. The specific groups are as follows: 1) control (PBS), CA (3 mg kg^−1), and WntSI (3 mg kg^−1); the drug was administered via tail vein every two days for a total five injections; 2) control (normal saline), Gefitinib (25 mg kg^−1 d^−1), Gefitinib combined with Savolitinib (2.5 mg kg^−1 d^−1), and Gefitinib combined with WntSI (3 mg kg^−1, every two days) groups; normal saline, Gefitinib, and Savolitinib were administered by daily gavage, while WntSI was administered via tail vein injection every two days. Tumor growth was monitored daily, and xenografts were collected for formalin‐fixed‐paraffin embedded (FFPE) or snap frozen in liquid nitrogen for subsequent experiments."}, "[2]": {"system": "PC-9 OE and NCI-H1975 OE cells", "test": "Colony formation assay", "type": "cell-based", "conditions": "7–10 days, n = 3", "procedure": "The PC‐9 OE and NCI‐H1975 OE cells were seeded at a low density and cultured in serum‐rich medium containing drugs for 7–10 days to assess clone formation. Subsequently, the culture medium was discarded, and the cell colonies were fixed with methanol, stained with 0.1% crystal violet, and washed with distilled water until the background was clear. The number of colonies was quantified using Image J software."}, "[3]": {"molecular_target": "T1, c-Met (Homo sapiens, UniProt P08581)", "T1 construct": "host or cells: PC-9 OE (PC-9 cells stably transduced with MET OE lentivirus)", "T1 sequence (P08581 25-1390)": "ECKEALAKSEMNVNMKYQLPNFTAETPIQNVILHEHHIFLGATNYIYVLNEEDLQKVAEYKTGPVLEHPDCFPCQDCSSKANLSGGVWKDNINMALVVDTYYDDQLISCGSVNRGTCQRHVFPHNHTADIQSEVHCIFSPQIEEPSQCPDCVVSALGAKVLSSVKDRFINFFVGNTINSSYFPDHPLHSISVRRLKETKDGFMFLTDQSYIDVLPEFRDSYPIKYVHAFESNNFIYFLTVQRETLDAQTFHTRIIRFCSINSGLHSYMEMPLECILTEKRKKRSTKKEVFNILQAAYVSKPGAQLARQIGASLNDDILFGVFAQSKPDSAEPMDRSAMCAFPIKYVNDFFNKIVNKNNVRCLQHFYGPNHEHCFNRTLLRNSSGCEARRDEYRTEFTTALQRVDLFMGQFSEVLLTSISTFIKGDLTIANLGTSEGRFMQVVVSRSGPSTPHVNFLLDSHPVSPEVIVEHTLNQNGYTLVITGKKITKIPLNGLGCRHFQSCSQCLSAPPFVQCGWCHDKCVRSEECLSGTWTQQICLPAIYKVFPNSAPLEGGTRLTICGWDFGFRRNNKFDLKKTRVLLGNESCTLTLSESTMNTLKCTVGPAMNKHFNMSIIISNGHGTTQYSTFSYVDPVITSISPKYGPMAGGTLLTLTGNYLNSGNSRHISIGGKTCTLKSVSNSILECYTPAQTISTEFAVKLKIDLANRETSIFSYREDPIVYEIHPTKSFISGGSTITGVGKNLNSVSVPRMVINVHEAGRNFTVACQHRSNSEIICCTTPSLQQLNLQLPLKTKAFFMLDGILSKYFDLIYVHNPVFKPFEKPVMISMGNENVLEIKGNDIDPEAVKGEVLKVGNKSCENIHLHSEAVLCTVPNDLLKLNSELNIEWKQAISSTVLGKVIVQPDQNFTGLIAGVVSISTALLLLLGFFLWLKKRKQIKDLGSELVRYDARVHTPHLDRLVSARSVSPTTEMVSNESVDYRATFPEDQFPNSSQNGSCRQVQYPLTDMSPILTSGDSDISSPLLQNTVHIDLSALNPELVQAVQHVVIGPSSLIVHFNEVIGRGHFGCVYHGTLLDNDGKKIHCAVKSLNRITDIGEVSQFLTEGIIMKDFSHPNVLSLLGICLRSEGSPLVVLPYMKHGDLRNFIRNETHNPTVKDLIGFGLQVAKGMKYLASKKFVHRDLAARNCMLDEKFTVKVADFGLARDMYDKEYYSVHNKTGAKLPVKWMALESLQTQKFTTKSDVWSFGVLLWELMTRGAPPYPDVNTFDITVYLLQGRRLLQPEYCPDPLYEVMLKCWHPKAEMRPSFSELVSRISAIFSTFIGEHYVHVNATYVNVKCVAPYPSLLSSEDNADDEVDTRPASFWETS", "test": "Biotin affinity purification (pull-down) assay", "type": "binding", "conditions": "biotin-labeled Tyr-Pep on streptavidin magnetic beads, lysed PC-9 OE cells, 4 °C, 6 h, western blotting", "description": "The process was successfully replicated through a coarse‐grained dynamic simulation involving the interaction between Tyr‐Pep and CA molecules, wherein the emergence of LLPS and subsequent self‐assembly into a condensate were observed (Figure 3B). […] Next, the mass ratio of 1:0.5 (Tyr‐Pep to CA) was selected for the preparation of the Wnt supramolecular inhibitor, WntSI, in order to maximize the utilization of condensate size for passive tumor targeting. […] Furthermore, the successful assembly of WntSI was once again confirmed by both Fourier‐transform infrared (FT‐IR) spectrum analysis (Figure S5C, Supporting Information) and UV–vis absorption spectrum analysis (Figure S5D, Supporting Information), providing compelling evidence through the presence of characteristic absorption peaks associated with peptide and CA. More importantly, as our design WntSI was constructed by a reversible supramolecular self‐assembly driven by LLPS, which can disassemble in response to MET (Figure 3A). Alpha Fold 2.0 accurately predicted the strong bonding ability between Tyr‐Pep and c‐Met, as depicted in Figure 3D. This prediction was further substantiated through co‐immunoprecipitation analysis involving biotin‐labeled Tyr‐Pep and c‐Met, as illustrated in Figure S5E (Supporting Information). […] The concentration of CA in their supernatant after centrifugation at 15 000 g was measured using HPLC. […]"}, "[4]": {"system": "PC-9 OE cells (MET overexpression)", "test": "alamarBlue cell viability", "type": "cell-based"}}, "note": "Non-standard residues stand in square brackets, D forms with d. Residues, ends and D or L forms follow the SMILES beside them.", "data": [{"smiles": "CC(C)c1cc2c(c(O)c1O)[C@@]1(C(=O)O)CCCC(C)(C)[C@@H]1CC2", "note": "[CA, carnosic acid]", "values": [{"measurement": "Levels of ALT and AST", "setting": "[1]; n = 3", "result": "varying degrees of increase"}, {"measurement": "Levels of white blood cells (WBC), neutrophils and platelets", "setting": "[1]; n = 3", "result": "significantly lower than those of the control group"}, {"measurement": "Weight growth rate of mice during treatment", "setting": "[1]; n = 5", "result": "slowed down"}]}, {"smiles": "CC[C@H](C)[C@H](NC(=O)[C@H](CC(C)C)NC(=O)[C@H](CC(N)=O)NC(=O)[C@@H](NC(=O)[C@@H](CCC(=O)O)NC(=O)[C@@H](Cc1c[nH]cn1)NC(=O)[C@@H](CCC(=O)O)NC(=O)[C@@H](Cc1c[nH]cn1)NC(=O)[C@@H](CCC(=O)O)NC(=O)[C@H](N)Cc1c[nH]cn1)C(C)C)C(=O)N[C@@H](CC(N)=O)C(=O)N[C@@H](Cc1ccc(O)cc1)C(=O)N[C@@H](CCC(N)=O)C(=O)N[C@@H](CC(=O)O)C(=O)N[C@@H](CC(=O)O)C(=O)N[C@@H](C)C(=O)N[C@@H](CCC(=O)O)C(=O)N[C@@H](CC(C)C)C(=O)N[C@H](Cc1c[nH]cn1)C(=O)N[C@H](Cc1c[nH]cn1)C(=O)N[C@H](Cc1c[nH]cn1)C(=O)N[C@H](CCCNC(=N)N)C(=O)N[C@H](CCCNC(=N)N)C(=O)N[C@H](CCCNC(=N)N)C(=O)N[C@H](CCCNC(=N)N)C(=O)N[C@H](Cc1c[nH]cn1)C(N)=O", "note": "[Tyr‐Pep] (H-[dH][dE][dH][dE][dH][dE]VNLINYQDDAEL[dH][dH][dH][dR][dR][dR][dR][dH]-NH2)", "values": [{"measurement": "Suppressive effect on clone formation", "setting": "[2]", "result": "no impact"}, {"measurement": "Co-immunoprecipitation with c-Met", "setting": "[3]", "result": "can be recognized by c‐Met"}]}, {"smiles": "C[C@@H](c1ccc2nccn2c1)n1nnc2ncc(-c3cnn(C)c3)nc21", "note": "[Savolitinib]", "values": [{"measurement": "Impact on the susceptibility of EGFR-TKIs", "setting": "[4]", "result": "negligible impact"}]}]}
